# Measured values from patent US20230027219A1, “Skin Care Compositions and Methods of Use Thereof” (Unigen, Inc., priority 2013, published 2023).
# Like-named read-outs stand apart in the source and are kept apart here.
# Assays:
# 3T3-L1 cells = test: Lipid accumulation assay in adipocytes (Oil red O staining); assay type: cell-based, Mouse; details: for inhibition at 0.005 µg/mL / inhibition at 0.01 µg/mL / inhibition at 0.05 µg/mL / inhibition at 0.1 µg/mL / inhibition at 0.5 µg/mL: Mus musculus, read-out: Inhibition (%) of lipid accumulation; for effect on lipid accumulation, in words: over the doses tested, 3T3-L1, Oil red O
# Protocol: Mouse embryo fibroblast 3T3-L1 cells (purchased from American Type Culture Collection) were cultured in Dulbecco's modified Eagle's medium (DMEM) (GIBCO) containing 10% bovine calf serum until confluent. Two days post-confluence (D0), the cells were stimulated to differentiate into an adipocyte-like phenotype by adding DMEM containing 10% fetal bovine serum (FBS), 5 μg/ml insulin, 0.5 mM 3-isobutyl-1-methylxanthine (IBMX) and 1 μM dexamethasone for two days (D2). Cells were then maintained in 10% FBS/DMEM medium with 5 μg/ml insulin for another two days (D4), followed by culturing with 10% FBS/DMEM medium for four days (D8). Test samples at various concentrations were added to the cells from Day 0 to Day 8 of adipogenesis, during which the medium was exchanged every 2 days with fresh medium containing the test sample. On Day 8, lipid droplets in cells were stained with Oil red O (ORO) and signal measured at 510 nm.
# Briefly, three concentrations of Annona AS-EE3 (100% EtOH) and AS-EE4 (70% EtOH) extracts (0.1, 0.5 and 1 μg/ml) and positive control TNF-α(10 ng/mL) were used to treat 3T3-L1 cells during the differentiation period (from Day 0 to Day 8 of adipogenesis). Cell culture medium containing extracts was changed every 2 days and ORO staining was used to detect lipid droplet accumulation in cells.
# Three concentrations of the Annona hexane extracts (0.05, 0.1 and 0.5 μg/ml) were used to treat 3T3-L1 cells during the differentiation period (from Day 0 to Day 8 of adipogenesis), then stained for lipid accumulation on Day 8.
# Similar to the previous extracts, each EtOAc extract was tested at three doses of 0.05 μg/ml, 0.1 μg/ml and 0.5 μg/ml.
# Similar to the previous extracts, each of the CO2 extracts were tested at the following six doses of 0.0625 μg/ml, 0.125 μg/ml, 0.25 μg/ml, 0.35 μg/ml, 0.5 μg/ml, and 1 μg/ml.
# [1] = system: human subcutaneous preadipocytes; test: Differentiation assay in human subcutaneous adipocytes (glycerol liberated from triglyceride); assay type: cell-based
# Protocol: The inhibition of lipid accumulation and differentiation assays examined the ability of compounds to inhibit the differentiation of human subcutaneous preadipocytes into adipocytes. Cells were grown to confluency such that all cells were synchronized and then differentiated. Cryopreserved preadipocytes were passaged with preadipocyte medium (PM-1). Cells were fed every other day with PM-1 until confluent. To induce differentiation, PM-1 medium was replaced with differentiation medium (DM-2) including insulin, dexamethasone, isobutyl methylxanthine, PPAR-γ agonist, TNF-α and test compounds at day two. After 7 days, the medium was changed to Adipocyte medium without the test compounds. On day 16 of the assay, cytotoxicity and lipid accumulation were measured. Medium was removed, leaving 50 μl in each well. 10 μl Cell Titer Blue reagent was added to each well. Cells were incubated at 37° C. for 2 hours. […] Fluorescence was measured at excitation 560 nm/emission 590 nm. […] The optical density was read at 540 nm after 15 minutes. […]
# The lipid accumulation assay of Example 28 was carried out with Annona squamosa extracts. […] After 2 weeks of treatment, cells were washed with PBS, lysed and triglyceride measured by total TG assay kit (Zen-bio). The reagents contain microbial lipase and the amount of glycerol liberated from triglyceride was measured. […]
# 3T3-L1 pre-adipocytes = test: Intracellular triglyceride (TG) content assay; assay type: cell-based, Mouse; details: 10 ng/ml; 3T3-L1, 8 days
# Protocol: […] The cells were washed with PBS, scraped with homogenizing solutions. The residual cell lysate was centrifuged at 3000 g for 5 min to remove fat layers. The supernatants were assayed. The triglyceride levels were measured by using a commercial kit according to the manufacturer's instructions (#10010303, Cayman Chem., USA). As adipocytes differentiate, their intracellular levels of triglyceride increase continuously.
Compound,"inhibition at 0.005 µg/mL (3T3-L1 cells; 3T3-L1, 0 h) [%]","inhibition at 0.01 µg/mL (3T3-L1 cells; 3T3-L1, 0 h) [%]","inhibition at 0.05 µg/mL (3T3-L1 cells; 3T3-L1, 0 h) [%]","inhibition at 0.1 µg/mL (3T3-L1 cells; 3T3-L1, 0 h) [%]","inhibition at 0.5 µg/mL (3T3-L1 cells; 3T3-L1, 0 h) [%]","effect on lipid accumulation, in words (3T3-L1 cells)","Concentration of Glycerol ([1]; 0.01 μg/ml, control 208.28) [µM]","Concentration of Glycerol ([1]; TNF-α 0.01 μg/mL, control 208.28 (Table 32))",Inhibition (%) of intracellular triglyceride level (3T3-L1 pre-adipocytes) [%],"inhibition at 0.005 µg/mL (3T3-L1 cells; 0 h, 0.005 μg/ml, 3T3-L1, treated Day 0-8, Oil red O) [%]","inhibition at 0.01 µg/mL (3T3-L1 cells; 0 h, 0.01 μg/ml, 3T3-L1, treated Day 0-8, Oil red O) [%]","inhibition at 0.05 µg/mL (3T3-L1 cells; 0 h, 0.05 μg/ml, 3T3-L1, treated Day 0-8, Oil red O) [%]","inhibition at 0.1 µg/mL (3T3-L1 cells; 0 h, 0.1 μg/ml, 3T3-L1, treated Day 0-8, Oil red O) [%]","inhibition at 0.5 µg/mL (3T3-L1 cells; 0 h, 0.5 μg/ml, 3T3-L1, treated Day 0-8, Oil red O) [%]"
"CCCCCCC(O)CCCC(O)C1CCC(C2CCC(C(O)CCCCCCCCCCCCC3=CC(C)OC3=O)O2)O1 (stereo not drawn) [SA1, Squamocin]",10.7 ± 10.9,37.8 ± 4.4,72.3 ± 3.1,71.6 ± 1.9,66.7 ± 4.7,high efficacy in a dose dependent manner,,,,,,,,
TNF-α [reference compound],,,,,,,4.40,4.40,55.1,,,,,
"C=C1C[C@@]23CC[C@H]4[C@@](C)(CCC[C@@]4(C)C(=O)O)[C@@H]2CC[C@@H]1C3 [SA2, kaurenoic acid]",,,,,,weaker effect,,,,2 ± 21.9,0,9.8 ± 13.6,12.6 ± 11.7,7.8 ± 17.1
